Source: patent publication US10202373B2, “Heteroaryls and uses thereof” (MILLENNIUM PHARMACEUTICALS, INC., priority 2014, dated 2019)

Target: human VPS34 (Homo sapiens (Human), UniProt Q8NEB9)
Experiment: Human VPS34 enzyme assay (Adapta TR-FRET)
Type: biochemical
Settings: for inhibition at 1.11 µM: 1 h, inhibition of VPS34 at a 1.11 μM concentration, read-out: Percent Inhibition; for IC50: human VPS34 enzyme assay, IC50 ranges
Experimental: VPS34 (accession number GB:BC033004) was cloned into pDEST20-Thombin as N-terminal GST tagged fusion proteins using the Gateway system (Invitrogen, catalog#11804-013). The sequences were verified before recombinant protein expression using the Baculovirus Expression System with Gateway® Technology. For expression VPS34 was infected at 1 MOI in SF9 cells and harvested 72 hours post infection. For purification, VPS34 is purified by Glutathione Sepharose 4 Fast Flow (GE Healthcare #17-5132-03) followed by HiTrap Q (GE Healthcare #17-1153-01). Human VPS34 Enzyme Assay Method 100 nL compounds in DMSO are added to wells of a 384 well microtitre plate (Greiner 780076). At room temperature: 5 ul VPS34 reaction buffer (Invitrogen Assay Buffer Q (diluted 1 in 5 with nanopure water) plus 2 mM DTT and 2 mM MnCl2) containing ATP (20 uM, Promega) and 200 uM PI-PS substrate (Invitrogen PV5122) is added followed immediately by 5 ul VPS34 reaction buffer (as above) containing VPS34 (5 nM, Millennium Protein Sciences Group) and the mixture is incubated with shaking at room temperature for 1 hour. Then 5 ul […]-detect mix (as per Invitrogen Adapta Assay kit (PV5009) instructions (contains kinase quench buffer, TR-FRET buffer, Adapta Eu anti-ADP antibody and Alexa Fluor 647 ADP tracer)) is added to quench the reaction. The plates are then incubated for 30 minutes at room temperature with shaking and then read on a BMG PheraStar Plus reader. For the assay methods described above, test compound percent inhibition, at various concentrations, is calculated relative to control (DMSO and EDTA) treated samples. Compound concentration versus percent inhibition curves are fitted to generate IC50 values. One skilled in the art will appreciate that the values generated either as percentage inhibition at a single concentration or IC50 values are subject to experimental variation. […] Additionally, compounds of the invention that inhibit VPS34 are described with the following IC50 ranges: […]

human VPS34, sequence (Q8NEB9 whole entry): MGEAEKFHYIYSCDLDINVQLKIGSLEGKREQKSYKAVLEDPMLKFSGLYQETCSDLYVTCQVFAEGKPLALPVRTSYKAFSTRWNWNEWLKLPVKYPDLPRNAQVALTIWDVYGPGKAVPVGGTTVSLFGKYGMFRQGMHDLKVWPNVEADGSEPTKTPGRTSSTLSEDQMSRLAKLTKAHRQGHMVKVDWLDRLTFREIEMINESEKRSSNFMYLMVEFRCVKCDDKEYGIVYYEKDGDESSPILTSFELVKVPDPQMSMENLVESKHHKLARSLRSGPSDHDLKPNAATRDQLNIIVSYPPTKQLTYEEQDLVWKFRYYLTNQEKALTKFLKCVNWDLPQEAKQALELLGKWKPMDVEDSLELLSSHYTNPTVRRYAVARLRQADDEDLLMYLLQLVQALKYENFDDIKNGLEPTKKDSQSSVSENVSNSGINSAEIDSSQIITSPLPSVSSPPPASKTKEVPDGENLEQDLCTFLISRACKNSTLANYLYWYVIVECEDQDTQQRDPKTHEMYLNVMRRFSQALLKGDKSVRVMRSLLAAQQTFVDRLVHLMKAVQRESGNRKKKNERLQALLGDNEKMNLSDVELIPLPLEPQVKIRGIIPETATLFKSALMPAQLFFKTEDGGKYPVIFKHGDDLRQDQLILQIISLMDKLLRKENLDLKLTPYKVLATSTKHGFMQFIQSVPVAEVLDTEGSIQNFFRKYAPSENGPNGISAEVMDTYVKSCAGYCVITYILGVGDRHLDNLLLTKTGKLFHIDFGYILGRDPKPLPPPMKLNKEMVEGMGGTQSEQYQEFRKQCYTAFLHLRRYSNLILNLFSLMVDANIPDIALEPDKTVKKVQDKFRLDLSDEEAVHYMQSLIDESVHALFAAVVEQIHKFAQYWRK

SMILES | inhibition at 1.11 µM | IC50
COC(=O)Nc1cc(-c2cncc3c2ccn3S(=O)(=O)c2ccccc2)ccn1 [Compound I-28, methyl {4-[1-(phenylsulfonyl)-1H-pyrrolo[2,3-c]pyridin-4-yl]pyridin-2-yl}carbamate] | > 99% | 0.01 to 0.05 µM
COC(=O)Nc1cc(-c2cncc3c2ccn3S(C)(=O)=O)ccn1 [Compound I-29, methyl {4-[1-(methylsulfonyl)-1H-pyrrolo[2,3-c]pyridin-4-yl]pyridin-2-yl}carbamate] | > 99% | 0.01 to 0.05 µM
CC(=O)Nc1cc(-c2cncc3c2cc(C)n3S(=O)(=O)c2ccccc2)ccn1 [Compound I-31, N-{4-[2-methyl-1-(phenylsulfonyl)-1H-pyrrolo[2,3-c]pyridin-4-yl]pyridin-2-yl}acetamide] | > 99% | 0.01 to 0.05 µM
CC(=O)Nc1cc(-c2cncc3c2ccn3S(=O)(=O)N(C)C)ccn1 [Compound I-33, N-{4-[1-(dimethylsulfamoyl)-1H-pyrrolo[2,3-c]pyridin-4-yl]pyridin-2-yl}acetamide] | > 99% | < 0.01 µM
CC(=O)Nc1cc(-c2cnc(C)c3c2ccn3S(=O)(=O)c2ccccc2C)ccn1 [Compound I-34, N-(4-{7-methyl-1-[(2-methylphenyl)sulfonyl]-1H-pyrrolo[2,3-c]pyridin-4-yl}pyridin-2-yl)acetamide] | > 99% | 0.01 to 0.05 µM
CC(=O)Nc1cc(-c2cnc(C)c3c2ccn3CC2CC2)ccn1 [Compound I-36, N-{4-[1-(cyclopropylmethyl)-7-methyl-1H-pyrrolo[2,3-c]pyridin-4-yl]pyridin-2-yl}acetamide] | 79% | > 0.1 µM
COC(=O)Nc1cc(-c2cnc(C)c3c2ccn3S(C)(=O)=O)ccn1 [Compound I-38, methyl {4-[7-methyl-1-(methylsulfonyl)-1H-pyrrolo[2,3-c]pyridin-4-yl]pyridin-2-yl}carbamate] | 99% | 0.01 to 0.05 µM
CCOC(=O)Nc1cc(-c2cnc(C)c3c2ccn3S(=O)(=O)C2CC2)ccn1 [Compound I-42, ethyl {4-[1-(cyclopropylsulfonyl)-7-methyl-1H-pyrrolo[2,3-c]pyridin-4-yl]pyridin-2-yl}carbamate] | > 99% | < 0.01 µM
CC(=O)Nc1cc(-c2cnc(C)c3c2ccn3S(C)(=O)=O)ccn1 [Compound I-45, N-{4-[7-methyl-1-(methylsulfonyl)-1H-pyrrolo[2,3-c]pyridin-4-yl]pyridin-2-yl}acetamide] | > 99% | 0.01 to 0.05 µM
CC(=O)Nc1cc(-c2cnc(C)c3c2c(F)cn3S(C)(=O)=O)ccn1 [Compound I-46, N-{4-[3-fluoro-7-methyl-1-(methylsulfonyl)-1H-pyrrolo[2,3-c]pyridin-4-yl]pyridin-2-yl}acetamide] | > 99% | 0.01 to 0.05 µM
CCOC(=O)Nc1cc(-c2cnc(C)c3c2ccn3S(=O)(=O)c2ccccc2)ccn1 [Compound I-47, ethyl {4-[7-methyl-1-(phenylsulfonyl)-1H-pyrrolo[2,3-c]pyridin-4-yl]pyridin-2-yl}carbamate] | > 99% | 0.01 to 0.05 µM
Cc1nccc(Nc2cc(-c3cnc(C)c4[nH]ccc34)ccn2)n1 [Compound I-51, 2-methyl-N-[4-(7-methyl-1H-pyrrolo[2,3-c]pyridin-4-yl)pyridin-2-yl]pyrimidin-4-amine] | 91% | 0.01 to 0.05 µM

The remaining lines, values ahead:

inhibition at 1.11 µM | IC50 | SMILES
> 99% | 0.01 to 0.05 µM | O=C(Cc1nnn[nH]1)Nc1cc(-c2cncc3c2ccn3S(=O)(=O)C2CC2)ccn1 [Compound I-27, N-{4-[1-(cyclopropylsulfonyl)-1H-pyrrolo[2,3-c]pyridin-4-yl]pyridin-2-yl}-2-(1H-tetrazol-5-yl)acetamide]
99% | 0.01 to 0.05 µM | COC(=O)Nc1cc(-c2cncc3c2ccn3S(=O)(=O)C2CC2)ccn1 [Compound I-30, methyl {4-[1-(cyclopropylsulfonyl)-1H-pyrrolo[2,3-c]pyridin-4-yl]pyridin-2-yl}carbamate]
30% | > 0.1 µM | CS(=O)(=O)n1ccc2c(-c3ccnc(N)c3)cncc21 [Compound I-32, 4-[1-(methylsulfonyl)-1H-pyrrolo[2,3-c]pyridin-4-yl]pyridin-2-amine]
> 99% | < 0.01 µM | CC(=O)Nc1cc(-c2cncc3c2ccn3S(=O)(=O)C2CC2)ccn1 [Compound I-37, N-{4-[1-(cyclopropylsulfonyl)-1H-pyrrolo[2,3-c]pyridin-4-yl]pyridin-2-yl}acetamide]
> 99% | < 0.01 µM | CC(=O)Nc1cc(-c2cncc3c2ccn3S(=O)(=O)c2ccccc2)ccn1 [Compound I-39, N-{4-[1-(phenylsulfonyl)-1H-pyrrolo[2,3-c]pyridin-4-yl]pyridin-2-yl}acetamide]
> 99% | 0.01 to 0.05 µM | CC(=O)Nc1cc(-c2cnc(CN)c3c2ccn3S(=O)(=O)C2CC2)ccn1 [Compound I-41, N-{4-[7-(aminomethyl)-1-(cyclopropylsulfonyl)-1H-pyrrolo[2,3-c]pyridin-4-yl]pyridin-2-yl}acetamide]
> 99% | < 0.01 µM | COC(=O)Nc1cc(-c2cnc(C)c3c2ccn3S(=O)(=O)C2CC2)ccn1 [Compound I-43, methyl {4-[1-(cyclopropylsulfonyl)-7-methyl-1H-pyrrolo[2,3-c]pyridin-4-yl]pyridin-2-yl}carbamate]
> 99% | 0.01 to 0.05 µM | CC(=O)Nc1cc(-c2cnc(C)c3c2ccn3S(=O)(=O)C2CC2)ccn1 [Compound I-44, N-{4-[1-(cyclopropylsulfonyl)-7-methyl-1H-pyrrolo[2,3-c]pyridin-4-yl]pyridin-2-yl}acetamide]
> 99% | 0.01 to 0.05 µM | Cc1ncc(-c2ccnc(NC(=O)CO)c2)c2ccn(S(=O)(=O)C3CC3)c12 [Compound I-48, N-{4-[1-(cyclopropylsulfonyl)-7-methyl-1H-pyrrolo[2,3-c]pyridin-4-yl]pyridin-2-yl}-2-hydroxyacetamide]
88% | 0.01 to 0.05 µM | O=S(=O)(C1CC1)n1ccc2c(-c3ccnc(Nc4ccncn4)c3)cncc21 [Compound I-49, N-{4-[1-(cyclopropylsulfonyl)-1H-pyrrolo[2,3-c]pyridin-4-yl]pyridin-2-yl}pyrimidin-4-amine]
82% | 0.01 to 0.05 µM | c1cc(Nc2cc(-c3cncc4[nH]ccc34)ccn2)ncn1 [Compound I-50, N-[4-(1H-pyrrolo[2,3-c]pyridin-4-yl)pyridin-2-yl]pyrimidin-4-amine]
